Laboratory results reported in US20240116951A1, “HETEROCYCLIC COMPOUNDS AND USES THEREOF” (Kumquat Biosciences Inc., priority 2022, published 2024).

What was measured:
Type in all cases: binding
KRAS G12S = target: T1, KRAS G12S (Homo sapiens, UniProt P01116, G12S); experiment: HTRF assay of K-Ras G12S interaction with SOS1 (PPI-HTRF); conditions: 5 nM KRAS G12S, read-out: PPI-HTRF-5 nM KRAS G12S
T1 construct: made in house; host or cells: E. coli, e.g. BL21 (DE3)
Summary of the method: (§1)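 Compounds tested in duplicate from 10 μM to 0.01 μM; 665/620 nm emission ratio used to derive IC50. Proximity FRET between anti-GST-Eu on GST-K-Ras (wildtype or mutant) and anti-6His-XL665 on His-hSOS1 measured after ≥10 min in pH 7.4 HEPES/NaCl/DTT/BSA/Igepal buffer.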

KRAS G12D = target: T2, KRAS G12D (Homo sapiens, UniProt P01116, G12D); experiment: HTRF assay of K-Ras G12D interaction with SOS1 (PPI-HTRF); conditions: HTRF, 5 nM KRAS G12D; read-out: PPI-HTRF-5 nM KRAS G12D
T2 construct: made in house; host or cells: E. coli, e.g. BL21 (DE3)
T2 sequence (P01116 1-188 isoform P01116-2 G12D): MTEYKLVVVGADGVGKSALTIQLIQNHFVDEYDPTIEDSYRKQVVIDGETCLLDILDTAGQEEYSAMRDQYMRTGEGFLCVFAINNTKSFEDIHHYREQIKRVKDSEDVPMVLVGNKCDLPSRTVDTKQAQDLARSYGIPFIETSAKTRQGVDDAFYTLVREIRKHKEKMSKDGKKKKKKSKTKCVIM
Summary of the method: as §1

KRAS WT = target: T3, KRAS WT (Homo sapiens, UniProt P01116); experiment: HTRF assay of wildtype K-Ras interaction with SOS1 (PPI-HTRF); conditions: HTRF, 5 nM KRAS WT; read-out: PPI-HTRF-5 nM KRAS WT
T3 construct: made in house; host or cells: E. coli, e.g. BL21 (DE3)
T3 sequence (P01116 1-188 isoform P01116-2): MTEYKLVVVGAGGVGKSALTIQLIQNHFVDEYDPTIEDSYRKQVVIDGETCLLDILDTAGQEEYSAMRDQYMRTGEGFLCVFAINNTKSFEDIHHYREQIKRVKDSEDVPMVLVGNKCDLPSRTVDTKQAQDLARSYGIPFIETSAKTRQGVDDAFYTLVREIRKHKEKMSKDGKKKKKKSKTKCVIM
Summary of the method: as §1

T1 sequence (P01116 1-188 isoform P01116-2 G12S): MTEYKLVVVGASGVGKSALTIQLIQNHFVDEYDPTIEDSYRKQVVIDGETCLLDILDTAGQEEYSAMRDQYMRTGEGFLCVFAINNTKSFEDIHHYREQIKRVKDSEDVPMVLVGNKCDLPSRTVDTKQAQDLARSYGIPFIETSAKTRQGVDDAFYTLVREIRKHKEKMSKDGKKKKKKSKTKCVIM

Row | IC50 (KRAS G12S) [µM] | IC50 (KRAS G12D) [µM] | IC50 (KRAS WT) [µM] | SMILES
1 | < 5 | < 5 | < 5 | C[C@H]1N(c2nc(OC[C@@]34CCCN3C[C@H](F)C4)nc3c(F)c(-c4ccc(F)c5sc(N)c(C#N)c45)c(Cl)cc23)CC[C@]12CCN2C(=O)n1cnc(Cl)n1 [Compound 229, 2-amino-4-(6-chloro-4-((4S,5R)-1-(3-chloro-1H-1,2,4-triazole-1-carbonyl)-5-methyl-1,6-diazaspiro[3.4]octan-6-yl)-8-fluoro-2-(((2R,7aS)-2-fluorotetrahydro-1H-pyrrolizin-7a(5H)-yl)methoxy)quinazolin-7-yl)-7-fluorobenzo[b]thiophene-3-carbonitrile]
2 | < 5 | < 5 | < 5 | CN1CCC[C@H]1COc1nc(N2CCC3(CC2)NC(=O)NC3=O)c2cc(Cl)c(-c3cccc4sc(N)nc34)c(F)c2n1 [Compound 249, 8-(7-(2-aminobenzo[d]thiazol-4-yl)-6-chloro-8-fluoro-2-(((S)-1-methylpyrrolidin-2-yl)methoxy)quinazolin-4-yl)-1,3,8-triazaspiro[4.5]decane-2,4-dione]
3 | < 5 | < 5 | < 5 | N#Cc1c(N)sc2c(F)ccc(-c3c(Cl)cc4c(N5CCCC6(CCCN6C(=O)n6cncn6)C5)nc(OC[C@@]56CCCN5C[C@H](F)C6)nc4c3F)c12 (stereo partly drawn) [Compound 208, 4-(4-(1-(1H-1,2,4-triazole-1-carbonyl)-1,7-diazaspiro[4.5]decan-7-yl)-6-chloro-8-fluoro-2-(((2R,7aS)-2-fluorotetrahydro-1H-pyrrolizin-7a(5H)-yl)methoxy)quinazolin-7-yl)-2-amino-7-fluorobenzo[b]thiophene-3-carbonitrile]
4 | < 5 | < 5 | < 5 | N#CCC(=O)N1CC[C@@]12CCN(c1nc(OC[C@@]34CCCN3C[C@H](F)C4)nc3c(F)c(-c4ccc(F)c5sc(N)c(C#N)c45)c(Cl)cc13)C2 [Compound 316]
5 | < 5 | < 5 | < 5 | Cc1ncn(C(=O)N2CCOCC23CCN(c2nc(OC[C@@]45CCCN4C[C@H](F)C5)nc4c(F)c(-c5ccc(F)c6sc(N)c(C#N)c56)c(Cl)cc24)C3)n1 (stereo partly drawn) [Compound 214, 2-amino-4-(6-chloro-8-fluoro-2-(((2R,7aS)-2-fluorotetrahydro-1H-pyrrolizin-7a(5H)-yl)methoxy)-4-(6-(3-methyl-1H-1,2,4-triazole-1-carbonyl)-9-oxa-2,6-diazaspiro[4.5]decan-2-yl)quinazolin-7-yl)-7-fluorobenzo[b]thiophene-3-carbonitrile]
6 | < 5 | < 5 | < 5 | N#Cc1c(N)sc2c(F)ccc(-c3c(Cl)cc4c(N5CCC6(CCN6C=O)C5)nc(OC[C@@]56CCCN5C[C@H](F)C6)nc4c3F)c12 (stereo partly drawn) [Compound 227, 2-amino-4-(6-chloro-8-fluoro-2-(((2R,7aS)-2-fluorotetrahydro-1H-pyrrolizin-7a(5H)-yl)methoxy)-4-(1-formyl-1,6-diazaspiro[3.4]octan-6-yl)quinazolin-7-yl)-7-fluorobenzo[b]thiophene-3-carbonitrile]
7 | < 5 | < 5 | < 5 | N#CCC1CN(c2nc(OC[C@@]34CCCN3C[C@H](F)C4)nc3c(F)c(-c4ccc(F)c5sc(N)c(C#N)c45)c(Cl)cc23)CC12CCN2C(=O)n1cnc(C(F)F)n1 (stereo partly drawn) [Compound 329, 2-amino-4-(6-chloro-4-(8-(cyanomethyl)-1-(3-(difluoromethyl)-1H-1,2,4-triazole-1-carbonyl)-1,6-diazaspiro[3.4]octan-6-yl)-8-fluoro-2-(((2R,7aS)-2-fluorotetrahydro-1H-pyrrolizin-7a(5H)-yl)methoxy)quinazolin-7-yl)-7-fluorobenzo[b]thiophene-3-carbonitrile]
8 | < 5 | < 5 | < 5 | N#Cc1c(N)sc2c(F)ccc(-c3c(Cl)cc4c(N5CCC6(CCN6C(=O)n6ccnc6C#N)C5)nc(OC[C@@]56CCCN5C[C@H](F)C6)nc4c3F)c12 (stereo partly drawn) [Compound 287, 1-(6-(7-(2-amino-3-cyano-7-fluorobenzo[b]thiophen-4-yl)-6-chloro-8-fluoro-2-(((2R,7aS)-2-fluorotetrahydro-1H-pyrrolizin-7a(5H)-yl)methoxy)quinazolin-4-yl)-1,6-diazaspiro[3.4]octane-1-carbonyl)-1H-imidazole-2-carbonitrile]
9 | < 5 | < 5 | < 5 | Nc1nc2c(-c3c(Cl)cc4c(NC5CC6(CCN6)C5)nc(OC[C@@]56CCCN5C[C@H](F)C6)nc4c3F)ccc(F)c2s1 (stereo partly drawn) [Compound 230, 4-(4-((1-azaspiro[3.3]heptan-6-yl)amino)-6-chloro-8-fluoro-2-(((2R,7aS)-2-fluorotetrahydro-1H-pyrrolizin-7a(5H)-yl)methoxy)quinazolin-7-yl)-7-fluorobenzo[d]thiazol-2-amine]
10 | < 5 | < 5 | < 5 | N#Cc1c(N)sc2c(F)ccc(-c3c(Cl)cc4c(N5CC[C@@]6(CCN6C(=O)n6cnc(C(F)F)n6)C5)nc(OC[C@@]56CCCN5C[C@H](F)C6)nc4c3F)c12 (atropisomer, axis not shown; (aS)) [Compound 278, 2-amino-4-((R)-6-chloro-4-((R)-1-(3-(difluoromethyl)-1H-1,2,4-triazole-1-carbonyl)-1,6-diazaspiro[3.4]octan-6-yl)-8-fluoro-2-(((2R,7aS)-2-fluorotetrahydro-1H-pyrrolizin-7a(5H)-yl)methoxy)quinazolin-7-yl)-7-fluorobenzo[b]thiophene-3-carbonitrile]
11 | < 5 | > 5 | > 5 | C#Cc1c(F)ccc2cc(O)cc(-c3ncc4c(N5CCC6(CCN6C(=O)n6cncn6)C5)nc(O[C@@H](C)[C@@H]5CCCN5C)nc4c3F)c12 (stereo partly drawn) [Compound 256, (6-(7-(8-ethynyl-7-fluoro-3-hydroxynaphthalen-1-yl)-8-fluoro-2-((S)-1-((S)-1-methylpyrrolidin-2-yl)ethoxy)pyrido[4,3-d]pyrimidin-4-yl)-1,6-diazaspiro[3.4]octan-1-yl)(1H-1,2,4-triazol-1-yl)methanone]
12 | < 5 | < 5 | < 5 | N#Cc1ncn(C(=O)N2CC[C@@]23CCN(c2nc(OC[C@@]45CCCN4C[C@H](F)C5)nc4c(F)c(-c5ccc(F)c6sc(N)c(C#N)c56)c(Cl)cc24)C3)n1 [Compound 321, 1-((4R)-6-(7-(2-amino-3-cyano-7-fluorobenzo[b]thiophen-4-yl)-6-chloro-8-fluoro-2-(((2R,7aS)-2-fluorotetrahydro-1H-pyrrolizin-7a(5H)-yl)methoxy)quinazolin-4-yl)-1,6-diazaspiro[3.4]octane-1-carbonyl)-1H-1,2,4-triazole-3-carbonitrile]
13 | < 5 | < 5 | < 5 | N#Cc1c(N)sc2c(F)ccc(-c3c(Cl)cc4c(N5CC[C@@]6(CCN6C(=O)n6cnc(F)n6)C5)nc(OC[C@@]56CCCN5C[C@H](F)C6)nc4c3F)c12 (atropisomer, axis not shown; (aS)) [Compound 281, (R)-2-amino-4-(6-chloro-8-fluoro-4-((R)-1-(3-fluoro-1H-1,2,4-triazole-1-carbonyl)-1,6-diazaspiro[3.4]octan-6-yl)-2-(((2R,7aS)-2-fluorotetrahydro-H-pyrrolizin-7a(5H)-yl)methoxy)quinazolin-7-yl)-7-fluorobenzo[b]thiophene-3-carbonitrile]
14 | < 5 | < 5 | < 5 | C[C@H](Oc1nc(N2CCCC3(CCN3C(=O)[C@@H]3C[C@H]3C#N)C2)c2cc(Cl)c(-c3ccc(F)c4sc(N)c(C#N)c34)c(F)c2n1)[C@@H]1CCCN1C (stereo partly drawn) [Compound 235, 2-amino-4-(6-chloro-4-(1-((1R,2R)-2-cyanocyclopropane-1-carbonyl)-1,6-diazaspiro[3.5]nonan-6-yl)-8-fluoro-2-((S)-1-((S)-1-methylpyrrolidin-2-yl)ethoxy)quinazolin-7-yl)-7-fluorobenzo[b]thiophene-3-carbonitrile]
15 | < 5 | < 5 | < 5 | CC(C)=C(C#N)C(=O)N1CCC12CCN(c1nc(OC[C@@]34CCCN3C[C@H](F)C4)nc3c(F)c(-c4ccc(F)c5sc(N)c(C#N)c45)c(Cl)cc13)C2 (stereo partly drawn) [Compound 297, 2-amino-4-(6-chloro-4-(1-(2-cyano-3-methylbut-2-enoyl)-1,6-diazaspiro[3.4]octan-6-yl)-8-fluoro-2-(((2R,7aS)-2-fluorotetrahydro-1H-pyrrolizin-7a(5H)-yl)methoxy)quinazolin-7-yl)-7-fluorobenzo[b]thiophene-3-carbonitrile]
16 | < 5 | < 5 | < 5 | Cc1nc(C(C)C)nn1C(=O)N1CCC12CCN(c1nc(OC[C@@]34CCCN3C[C@H](F)C4)nc3c(F)c(-c4ccc(F)c5sc(N)c(C#N)c45)c(Cl)cc13)C2 (stereo partly drawn) [Compound 266, 2-amino-4-(6-chloro-8-fluoro-2-(((2R,7aS)-2-fluorotetrahydro-1H-pyrrolizin-7a(5H)-yl)methoxy)-4-(1-(3-isopropyl-5-methyl-1H-1,2,4-triazole-1-carbonyl)-1,6-diazaspiro[3.4]octan-6-yl)quinazolin-7-yl)-7-fluorobenzo[b]thiophene-3-carbonitrile]
